Experimental data taken from patent publication US10533015B1, “Opioid receptor antagonist prodrugs” (Nirsum Laboratories, Inc., priority 2019, dated 2020).
Read-outs that look alike come from different tables or passages of the source.

Key:
[1] = Plasma stability assay, human plasma; type: in vitro ADME; conditions: 2 μM, 37° C.
Experimental: (§1) Plasma stability determination of the test compounds in rat, dog, cynomolgus monkey and human plasma is performed using HPLC-MS. For rat, incubations are carried out in 96-well polypropylene plates in 5 aliquots of 70 μL each (one for each time point). […] Five time points are analyzed (0, 15, 120, 480 and 1440 min). […] All incubations are performed in duplicates. The samples are analyzed by HPLC-MS. The percentage of parent compound remaining after incubation in plasma is determined.

[2] = Liver S9 fraction stability, dog; type: in vitro ADME; conditions: dog liver S9, 1.0 mg/ml S9 protein, 2 μM, 37° C.
Experimental: (§2) Liver S9 fraction stability determination of the test compounds in dog, cynomolgus monkey and human is performed using HPLC-MS. Test compound (2 μM, 0.1% DMSO, 1% Methanol final concentration) was assessed for stability in a 50 μl phosphate buffer containing 1.0 mg/ml S9 protein from each of the three species and 5 mM D-saccharic acid-1, 4-lactone. Samples were incubated at 37° C. for 60 minutes and the % compound remaining was assessed.

[3] = Plasma stability assay, monkey plasma; type: in vitro ADME, cynomolgus monkey; conditions: 2 μM, 37° C.
Experimental: as §1

[4] = Plasma stability assay, rat plasma; type: in vitro ADME; conditions: 10 μM, 37° C.
Procedure, shortened: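 Rat, dog, cynomolgus monkey and human plasma incubated in duplicate; rat sampled at 0, 15, 120, 480 and 1440 min. Dog, monkey and human used 2 μM compound (final), 1% solvent, 37° C., sampled at 0, 10, 30, 60 and 120 min. HPLC-MS gave % parent remaining.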

[5] = Liver S9 fraction stability, human; type: in vitro ADME; conditions: human liver S9, 1.0 mg/ml S9 protein, 2 μM, 37° C.
Experimental: as §2

[6] = Liver S9 fraction stability, monkey; type: in vitro ADME, cynomolgus monkey; conditions: monkey liver S9, 1.0 mg/ml S9 protein, 2 μM, 37° C.
Experimental: as §2

[7] = Plasma stability assay, dog plasma; type: in vitro ADME; conditions: 2 μM, 37° C.
Experimental: as §1

DOR = target: T1, DOR (Homo sapiens, UniProt P41143); assay: Opioid receptor binding assay, DOR ([3H]-DADLE); conditions: MaxDose 10000 nM
T1 construct: expressed in transfected cells
Experimental: Receptor binding assays were performed to assess the ability of compounds to inhibit binding to radiolabeled ligand.
The stable cell lines were established and prepared cell membrane obtained using these cell lines.
3) Assay Procedure 1) Transfer 1 μl of specified concentration compound to assay plate according to the plate map for nonspecific binding. Transfer 1 μl of DMSO to assay plate according to plate map for total binding. 2) Follow the plate map. Dispense 99 μl of membrane stocks into the plate. 3) Add 100 μl of radio ligand. 4) Seal the plates. Incubate at RT for 1 hour. 5) Soak the Unifilter-96 GF/C filter plates with 50 μl of 0.3% PEI per well for at least 0.5 hour at room temperature. 6) When binding assays are completed, filter the reaction mixture through GF/C plates using Perkin Elmer Filtermate Harvester, and then wash each plate for 4 times with cold wash buffer. 7) Dry the filter plates for 1 hour at 50 degrees. 8) After drying, seal the bottom of the filter plate wells using Perkin Elmer Unifilter-96 backing seal tape. Add 50 μl of Perkin Elmer Microscint 20 cocktail. Seal top of filter plates with Perkin Elmer TopSeal-A sealing film. 9) Count ^3H trapped on filter using Perkin Elmer MicroBeta2 Reader second day. 10) Analyze the data with GraphPad Prism 5. Calculate the “Inhibition [% Control]” using the equation: % Inh=(1-Background subtracted Assay value/Background subtracted HC value)*100. Results

physchem = conditions: thermodynamic from solid; for solubility at 24 h: 25 °C, oil or lipid, heating temp. 60 °C, obs. temp. 25 °C
[8] = heating temp. 40 °C, obs. temp. 40 °C
[9] = heating temp. 60 °C, obs. temp. 25 °C

T1 sequence (P41143 whole entry): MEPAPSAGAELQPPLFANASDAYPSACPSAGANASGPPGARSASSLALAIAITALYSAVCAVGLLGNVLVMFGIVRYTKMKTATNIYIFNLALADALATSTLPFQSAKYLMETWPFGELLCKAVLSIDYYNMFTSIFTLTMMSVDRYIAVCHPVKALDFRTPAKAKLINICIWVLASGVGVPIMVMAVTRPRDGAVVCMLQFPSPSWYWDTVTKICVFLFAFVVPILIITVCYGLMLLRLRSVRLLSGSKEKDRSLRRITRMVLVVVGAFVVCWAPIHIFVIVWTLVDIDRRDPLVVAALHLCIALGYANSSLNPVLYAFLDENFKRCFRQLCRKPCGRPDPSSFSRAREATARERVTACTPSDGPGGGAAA

Row | SMILES | % remaining at time point ([1]; 0 min) [%] | % remaining at time point ([1]; 15 min (head)) [%] | % remaining at time point ([1]; 120 min (head)) [%] | % remaining at time point ([1]; 480 min (head)) [%] | % remaining at time point ([1]; 1440 min (head)) [%] | % remaining at 60 minutes [2] [%] | Approximate Solubility (mg/mL) in Excipient: Cottonseed oil [9] [mg/mL] | Approximate Solubility (mg/mL) in Excipient: Sesame oil [9] [mg/mL] | % remaining at time point ([3]; 0 min) [%] | % remaining at time point ([3]; 15 min (head)) [%] | % remaining at time point ([3]; 120 min (head)) [%] | % remaining at time point ([3]; 480 min (head)) [%] | % remaining at time point ([3]; 1440 min (head)) [%] | % remaining at time point ([4]; 0 min) [%] | % remaining at time point ([4]; 15 min) [%] | % remaining at time point ([4]; 120 min) [%] | % remaining at time point ([4]; 480 min) [%] | % remaining at time point ([4]; 1440 min) [%] | % remaining at 60 minutes [5] [%] | % remaining at 60 minutes [6] [%] | also measured
1 | C=C1CC[C@@]2(O)C3Cc4ccc(OC(=O)CCCCCCC/C=C/CCCCCCCC)c5c4[C@@]2(CCN3CC2CC2)[C@H]1O5 [Compound 15, (4aS,7aS,12bS)-3-(cyclopropylmethyl)-4a-hydroxy-7-methylene-2,3,4,4a,5,6,7,7a-octahydro-1H-4,12-methanobenzofuro[3,2-e]isoquinolin-9-yl (E)-octadec-9-enoate] | 100 | 83.3 | 82.5 | 107.1 | 109.0 | 80.9 | >402.6 | >396.5 | 100 | 74.5 | 72.7 | 80.6 | 76.5 | 100 | 72 | 69.3 | 52 | 35 | 59.8 | 76.7 | Approximate Solubility (mg/mL) in Excipient: Cottonseed oil [8]: <51 mg/mL; Approximate Solubility (mg/mL) in Excipient: Cottonseed oil (heating temp. 60 °C, obs. temp. 40 °C): >401 mg/mL; Approximate Solubility (mg/mL) in Excipient: Ethanol (Ethanol, heating temp. 40 °C, obs. temp. 40 °C): <20 mg/mL; Approximate Solubility (mg/mL) in Excipient: Sesame oil [8]: <52 mg/mL; Equilibrium solubility (mg/mL) Water [8]: <0.0002 mg/mL; % remaining at time point ([7]; 0 min): 100%; % remaining at time point ([7]; 15 min (head)): 82.5%; % remaining at time point ([7]; 120 min (head)): 80.6%; % remaining at time point ([7]; 480 min (head)): 90.1%; % remaining at time point ([7]; 1440 min (head)): 86.1%
2 | C=C1CC[C@@]2(O)C3Cc4ccc(OC(=O)OCCCCCCCCCCCCCCC)c5c4[C@@]2(CCN3CC2CC2)[C@H]1O5 [Compound 32, (4aS,7aS,12bS)-3-(cyclopropylmethyl)-4a-hydroxy-7-methylene-2,3,4,4a,5,6,7,7a-octahydro-1H-4,12-methanobenzofuro[3,2-e]isoquinolin-9-yl pentadecyl carbonate] |  |  |  |  |  |  | >395.8 | >410 |  |  |  |  |  |  |  |  |  |  |  |  | % Inh@MaxDose (DOR): 43.2%
3 | CCCCCCCCCCCCCCCC(=O)OC1CCCn2c1nc(C)c(CCN1CCC(c3noc4cc(F)ccc34)CC1)c2=O (stereo not shown) [Paliperidone palmitate, reference compound] | 100 | 103.7 | 97.6 | 109.1 | 104.1 | 56.4 |  |  | 100 | 92 | 89.5 | 98.4 | 92.5 |  |  |  |  |  | 47.8 | 57.4 | % remaining at time point ([7]; 0 min): 100%; % remaining at time point ([7]; 15 min (head)): 91.2%; % remaining at time point ([7]; 120 min (head)): 88.4%; % remaining at time point ([7]; 480 min (head)): 95.9%; % remaining at time point ([7]; 1440 min (head)): 93.1%
4 | C=C1CC[C@@]2(O)C3Cc4ccc(OCOC(=O)CCCCCCCCCCCCC)c5c4[C@@]2(CCN3CC2CC2)[C@H]1O5 [Compound 45, (((4aS,7aS,12bS)-3-(cyclopropylmethyl)-4a-hydroxy-7-methylene-2,3,4,4a,5,6,7,7a-octahydro-1H-4,12-methanobenzofuro[3,2-e]isoquinolin-9-yl)oxy)methyl tetradecanoate] |  |  |  |  |  |  | >402 | 267 to 288 |  |  |  |  |  |  |  |  |  |  |  |  | Equilibrium solubility (mg/mL) Water [8]: <0.001 mg/mL; % Inh@MaxDose (DOR): 73.8%
5 | C=C1CC[C@@]2(O)C3Cc4ccc(OC(=O)CCCCCCCCCCC)c5c4[C@@]2(CCN3CC2CC2)[C@H]1O5 [Compound 59, (4aS,7aS,12bS)-3-(cyclopropylmethyl)-4a-hydroxy-7-methylene-2,3,4,4a,5,6,7,7a-octahydro-1H-4,12-methanobenzofuro[3,2-e]isoquinolin-9-yl dodecanoate, reference compound] |  |  |  |  |  |  |  |  |  |  |  |  |  | 100 | 5.9 | 0.7 | 0.2 | 0 |  |  | solubility at 24 h (physchem; Approximate Solubility (mg/mL) in Excipient: Cottonseed oil, Cottonseed oil): > 414 mg/mL; solubility at 24 h (physchem; Approximate Solubility (mg/mL) in Excipient: Sesame oil, Sesame oil): > 393 mg/mL; solubility thermodynamic (physchem; 40 °C, water): < 0.001 mg/mL
6 | CCCCCCCCCCCC(=O)OCN1C(=O)CCc2ccc(OCCCCN3CCN(c4cccc(Cl)c4Cl)CC3)cc21 [Aripiprazole Lauroxil, reference compound] | 100 | 99.7 | 80 | 73.2 | 75.5 | 66.1 |  |  | 100 | 95.2 | 94.5 | 75.5 | 83.2 | 100 | 84 | 85.5 | 76.4 | 46 | 47.8 | 56.6 | % remaining at time point ([7]; 0 min): 100%; % remaining at time point ([7]; 15 min (head)): 103%; % remaining at time point ([7]; 120 min (head)): 81.3%; % remaining at time point ([7]; 480 min (head)): 78.6%; % remaining at time point ([7]; 1440 min (head)): 74.3%
7 | C=C1CC[C@@]2(O)C3Cc4ccc(OCOC(=O)OCCCCCCCCCCCC)c5c4[C@@]2(CCN3CC2CC2)[C@H]1O5 [Compound 24, (((4aS,7aS,12bS)-3-(cyclopropylmethyl)-4a-hydroxy-7-methylene-2,3,4,4a,5,6,7,7a-octahydro-1H-4,12-methanobenzofuro[3,2-e]isoquinolin-9-yl)oxy)methyl dodecyl carbonate] | 100 | 94 | 102.3 | 105.3 | 112.5 | 3.6 | >403 | 338 to 368 | 100 | 90.7 | 93.5 | 96.2 | 97.8 | 100 | 32 | 11.8 | 8.2 | 3 | 3.5 | 3 | Equilibrium solubility (mg/mL) Water [8]: <0.001 mg/mL; % remaining at time point ([7]; 0 min): 100%; % remaining at time point ([7]; 15 min (head)): 94.7%; % remaining at time point ([7]; 120 min (head)): 104.5%; % remaining at time point ([7]; 480 min (head)): 115.7%; % remaining at time point ([7]; 1440 min (head)): 116.2%
